Assay: Aqueous solubility
Assay type: physicochemical

CO[C@@H]1CCN(c2nccc(Nc3cc4c(C(C)C)ccc(N5C[C@H](CS(C)(=O)=O)[C@H]5C)c4cn3)n2)C[C@@H]1F [Compound (I), N-(2-((3S,4R)-3-fluoro-4-methoxypiperidin-1-yl)pyrimidin-4-yl)-5-isopropyl-8-((2R,3S)-2-methyl-3-((methylsulfonyl)methyl)azetidin-1-yl)isoquinolin-3-amine]
aqueous solubility: low aqueous solubility
